The results in this text go back to patent US12673961B2 (Agios Pharmaceuticals, Inc., priority 2022, dated 2026).

SMILES strings stand for the structures.

This assay has as its target T1, human PAH with the R408W mutation (Homo sapiens, UniProt P00439, R408W).
T1 construct: expressed in transfected cells
T1 sequence (P00439 1-452 R408W): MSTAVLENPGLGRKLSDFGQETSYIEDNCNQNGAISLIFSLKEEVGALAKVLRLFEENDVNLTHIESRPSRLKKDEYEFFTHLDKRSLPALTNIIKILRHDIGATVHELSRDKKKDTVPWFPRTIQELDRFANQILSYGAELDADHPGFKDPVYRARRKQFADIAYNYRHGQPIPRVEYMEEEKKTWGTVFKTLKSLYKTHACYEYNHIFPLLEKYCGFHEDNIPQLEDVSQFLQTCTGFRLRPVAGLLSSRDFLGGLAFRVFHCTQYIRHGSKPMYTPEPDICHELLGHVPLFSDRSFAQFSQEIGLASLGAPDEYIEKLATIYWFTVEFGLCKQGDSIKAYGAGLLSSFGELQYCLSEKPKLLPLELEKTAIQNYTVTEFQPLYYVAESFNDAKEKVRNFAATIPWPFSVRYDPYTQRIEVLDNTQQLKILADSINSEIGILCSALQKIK
Put plainly: Cell Based Phenylalanine Flux Assay.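 Further: Ten-point dose curve from 2-fold serial dilutions, run in duplicate at 0.5% DMSO final, tracer step used 20 µM sepiapterin and 800 µM labeled phenylalanine.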 The following applies: A375 cells expressing human R408W PAH; 24 hrs compound incubation; 13C-Tyrosine by LC-MS; average where tested multiple times; read-out: AC50.
`Cc1cccc2cc([C@@H]3c4nc[nH]c4CCN3C(=O)c3oc([C@@H](C)O)nc3C(F)F)nn12` [Example 1164, (4-(difluoromethyl)-2-((R)-1-hydroxyethyl)oxazol-5-yl)((S)-4-(7-methylpyrazolo [1,5-a]pyridin-2-yl)-6,7-dihydro-1H-imidazo[4,5-c]pyridin-5(4H)-yl)methanone]: the half-maximal activity concentration (AC50) was below 0.5 µM.

For `Cc1ccc2cc([C@H]3c4nc[nH]c4CCN3C(=O)c3nnc(C(C)(C)F)o3)nn2c1` [Example 1170, (R)-(5-(2-fluoropropan-2-yl)-1,3,4-oxadiazol-2-yl)(4-(6-methylpyrazolo[1,5-a]pyridin-2-yl)-6,7-dihydro-1H-imidazo[4,5-c]pyridin-5(4H)-yl)methanone], the AC50 is above 5 µM.

Take `Cc1ncoc1C(=O)N1CCc2[nH]cnc2[C@@H]1c1cc2cccc(Cl)n2n1` [Example 1175, (R)-(4-(7-chloropyrazolo [1,5-a]pyridin-2-yl)-6,7-dihydro-1H-imidazo[4,5-c]pyridin-5(4H)-yl)(4-methyloxazol-5-yl)methanone]: the AC50 is 1 to 5 µM.

For the compound `Cc1ccn2nc([C@H]3c4nc[nH]c4CCN3C(=O)c3cnco3)cc2c1` [Example 1184, (R)-(4-(5-methylpyrazolo [1,5-a]pyridin-2-yl)-6,7-dihydro-1H-imidazo[4,5-c]pyridin-5(4H)-yl)(oxazol-5-yl)methanone], the concentration at half-maximal activity (AC50) was 0.5 to 1 µM.

Turning to `Cc1ccn2nc([C@@H]3c4nc[nH]c4CCN3C(=O)c3cnco3)cc2c1` [Example 1185, (S)-(4-(5-methylpyrazolo [1,5-a]pyridin-2-yl)-6,7-dihydro-1H-imidazo[4,5-c]pyridin-5(4H)-yl)(oxazol-5-yl)methanone], the concentration at half-maximal activity (AC50) was 1 to 5 µM.

Consider `Cc1c(-c2nnc(C(=O)N3CCc4[nH]cnc4[C@H]3c3cc4cccc(C)n4n3)o2)cnn1C` [Example 1188, (S)-(5-(1,5-dimethyl-1H-pyrazol-4-yl)-1,3,4-oxadiazol-2-yl)(4-(7-methylpyrazolo[1,5-a]pyridin-2-yl)-6,7-dihydro-1H-imidazo[4,5-c]pyridin-5(4H)-yl)methanone], for which the AC50 was 0.5 to 1 µM.

In the case of `Cc1c(-c2nnc(C(=O)N3CCc4[nH]cnc4[C@H]3c3cc4cccc(C(F)(F)F)n4n3)o2)cnn1C` [Example 1190, (S)-(5-(1,5-dimethyl-1H-pyrazol-4-yl)-1,3,4-oxadiazol-2-yl)(4-(7-(trifluoromethyl)pyrazolo[1,5-a]pyridin-2-yl)-6,7-dihydro-1H-imidazo [4,5-c]pyridin-5(4H)-yl)methanone], the AC50 was 0.5 to 1 µM.

Regarding `C[C@@H](O)c1nc(C(F)F)c(C(=O)N2CCc3[nH]cnc3[C@H]2c2cc3cccc(Cl)n3n2)o1` [Example 1196, ((S)-4-(7-chloropyrazolo [1,5-a]pyridin-2-yl)-6,7-dihydro-1H-imidazo[4,5-c]pyridin-5(4H)-yl)(4-(difluoromethyl)-2-((R)-1-hydroxyethyl)oxazol-5-yl)methanone], the half-maximal activity concentration (AC50) was below 0.5 µM.

Regarding `Cc1ncoc1C(=O)N1CCc2[nH]cnc2[C@H]1c1cc2cccc(C(F)(F)F)n2n1` [Example 1198], the concentration at half-maximal activity (AC50) was in the range of 0.5 to 1 µM.

As for `Cc1ncoc1C(=O)N1CCc2[nH]cnc2[C@@H]1c1cc2cccc(C(F)(F)F)n2n1` [Example 1199], the AC50 is 1 to 5 µM.

For `COc1cccn2nc([C@H]3c4nc[nH]c4CCN3C(=O)c3nnc(-c4cnn(C)c4C)o3)cc12` [Example 1207, (R)-(5-(1,5-dimethyl-1H-pyrazol-4-yl)-1,3,4-oxadiazol-2-yl)(4-(4-methoxypyrazolo [1,5-a]pyridin-2-yl)-6,7-dihydro-1H-imidazo[4,5-c]pyridin-5(4H)-yl)methanone], the concentration at half-maximal activity (AC50) is above 5 µM.

As for `Cc1c(-c2nnc(C(=O)N3CCc4[nH]cnc4[C@H]3c3cc4c(Cl)cccn4n3)o2)cnn1C` [Example 1214, (S)-(4-(4-chloropyrazolo [1,5-a]pyridin-2-yl)-6,7-dihydro-1H-imidazo[4,5-c]pyridin-5(4H)-yl)(5-(1,5-dimethyl-1H-pyrazol-4-yl)-1,3,4-oxadiazol-2-yl)methanone], the concentration at half-maximal activity (AC50) is below 0.5 µM.

In the case of `Cc1cccn2nc([C@@H]3c4nc[nH]c4CCN3C(=O)c3oc(C4(O)CC4)nc3C(F)F)cc12` [Example 1220, (S)-(4-(difluoromethyl)-2-(1-hydroxycyclopropyl)oxazol-5-yl)(4-(4-methylpyrazolo[1,5-a]pyridin-2-yl)-6,7-dihydro-1H-imidazo[4,5-c]pyridin-5(4H)-yl)methanone], the AC50 was below 0.5 µM.

For `Cn1cc(-c2nnc(C(=O)N3CCc4[nH]cnc4[C@H]3c3cc4cccc(F)n4n3)o2)cn1` [Example 1224, (S)-(4-(7-fluoropyrazolo[1,5-a]pyridin-2-yl)-6,7-dihydro-1H-imidazo[4,5-c]pyridin-5(4H)-yl)(5-(1-methyl-1H-pyrazol-4-yl)-1,3,4-oxadiazol-2-yl) methanone], the concentration at half-maximal activity (AC50) was in the range of 0.5 to 1 µM.

Take `O=C(c1nnc(C2CC2)o1)N1CCc2[nH]cnc2[C@H]1c1cc2cccc(F)n2n1` [Example 1246, (S)-(5-cyclopropyl-1,3,4-oxadiazol-2-yl)(4-(7-fluoropyrazolo[1,5-a]pyridin-2-yl)-6,7-dihydro-1H-imidazo[4,5-c]pyridin-5(4H)-yl)methanone]: the AC50 was in the range of 0.5 to 1 µM.

Regarding `O=C(c1nnc(C2CC2)o1)N1CCc2[nH]cnc2[C@@H]1c1cc2cccc(F)n2n1` [Example 1247, (R)-(5-cyclopropyl-1,3,4-oxadiazol-2-yl)(4-(7-fluoropyrazolo[1,5-a]pyridin-2-yl)-6,7-dihydro-1H-imidazo[4,5-c]pyridin-5(4H)-yl)methanone], the AC50 was in the range of 1 to 5 µM.

For the compound `O=C(c1nnc(-c2ccncn2)o1)N1CCc2[nH]cnc2[C@H]1c1cc2c(F)cccn2n1` [Example 1258, (S)-(4-(4-fluoropyrazolo[1,5-a]pyridin-2-yl)-6,7-dihydro-1H-imidazo[4,5-c]pyridin-5(4H)-yl)(5-(pyrimidin-4-yl)-1,3,4-oxadiazol-2-yl)methanone], the concentration at half-maximal activity (AC50) was in the range of 0.5 to 1 µM.

As for `Cc1nc(C(C)(C)F)oc1C(=O)N1CCc2[nH]cnc2[C@H]1c1cc2cccc(C(F)(F)F)n2n1` [Example 1265, (S)-(2-(2-fluoropropan-2-yl)-4-methyloxazol-5-yl)(4-(7-(trifluoromethyl)pyrazolo [1,5-a]pyridin-2-yl)-6,7-dihydro-1H-imidazo[4,5-c]pyridin-5(4H)-yl)methanone], the AC50 was below 0.5 µM.

Consider `Cc1cccc2cc([C@@H]3c4nc[nH]c4CCN3C(=O)c3oc(C4(O)CC4)nc3C(F)F)nn12` [Example 1280, (S)-(4-(difluoromethyl)-2-(1-hydroxycyclopropyl)oxazol-5-yl)(4-(7-methylpyrazolo[1,5-a]pyridin-2-yl)-6,7-dihydro-1H-imidazo[4,5-c]pyridin-5(4H)-yl)methanone], for which the AC50 is below 0.5 µM.

As to `COc1ccc(-c2nnc(C(=O)N3CCc4[nH]cnc4[C@H]3c3cc4c(Cl)cccn4n3)o2)nc1` [Example 1299, (S)-(4-(4-chloropyrazolo [1,5-a]pyridin-2-yl)-6,7-dihydro-1H-imidazo[4,5-c]pyridin-5(4H)-yl)(5-(5-methoxypyridin-2-yl)-1,3,4-oxadiazol-2-yl)methanone], the AC50 was below 0.5 µM.

Regarding `Cc1ncccc1-c1nnc(C(=O)N2CCc3[nH]cnc3[C@@H]2c2cc3c(C(F)(F)F)cccn3n2)o1` [Example 1305, (R)-(5-(2-methylpyridin-3-yl)-1,3,4-oxadiazol-2-yl)(4-(4-(trifluoromethyl)pyrazolo [1,5-a]pyridin-2-yl)-6,7-dihydro-1H-imidazo[4,5-c]pyridin-5(4H)-yl)methanone], the AC50 fell in the range of 1 to 5 µM.

As to `O=C(c1nnc(-c2ccccn2)o1)N1CCc2[nH]cnc2[C@H]1c1cc2c(C(F)F)cccn2n1` [Example 1314, (S)-(4-(4-(difluoromethyl)pyrazolo[1,5-a]pyridin-2-yl)-6,7-dihydro-1H-imidazo [4,5-c]pyridin-5(4H)-yl)(5-(pyridin-2-yl)-1,3,4-oxadiazol-2-yl)methanone], the half-maximal activity concentration (AC50) is below 0.5 µM.

For `O=C(c1nnc(-c2ccccn2)o1)N1CCc2[nH]cnc2[C@@H]1c1cc2c(C(F)F)cccn2n1` [Example 1315, (R)-(4-(4-(difluoromethyl)pyrazolo[1,5-a]pyridin-2-yl)-6,7-dihydro-1H-imidazo [4,5-c]pyridin-5(4H)-yl)(5-(pyridin-2-yl)-1,3,4-oxadiazol-2-yl)methanone], the AC50 lay in the range of 1 to 5 µM.

With `Cc1cccc2cc([C@H]3c4nc[nH]c4CCN3C(=O)c3nnc(C4(C)CC4)o3)nn12` [Example 1318, (R)-(5-(1-methylcyclopropyl)-1,3,4-oxadiazol-2-yl)(4-(7-methylpyrazolo[1,5-a]pyridin-2-yl)-6,7-dihydro-1H-imidazo[4,5-c]pyridin-5(4H)-yl)methanone], the AC50 was in the range of 1 to 5 µM.

For the compound `COc1cccn2nc([C@@H]3c4nc[nH]c4CCN3C(=O)c3cnn4ccccc34)cc12` [Example 1326, (S)-(4-(4-methoxypyrazolo [1,5-a]pyridin-2-yl)-6,7-dihydro-1H-imidazo [4,5-c]pyridin-5(4H)-yl)(pyrazolo[1,5-a]pyridin-3-yl)methanone], the half-maximal activity concentration (AC50) was below 0.5 µM.

Turning to `Cc1ncccc1-c1nnc(C(=O)N2CCc3[nH]cnc3[C@@H]2c2cc3c(F)cccn3n2)o1` [Example 1329, (R)-(4-(4-fluoropyrazolo [1,5-a]pyridin-2-yl)-6,7-dihydro-1H-imidazo[4,5-c]pyridin-5(4H)-yl)(5-(2-methylpyridin-3-yl)-1,3,4-oxadiazol-2-yl)methanone], the concentration at half-maximal activity (AC50) is above 5 µM.
